Experiments:
Assay in all cases: liposome co-sedimentation with anti-His Western blot; protein-lipid overlay
Type in all cases: binding
[1] = molecular target: T1, GDSL-lipase (Arabidopsis thaliana, UniProt Q9C7N5); details: pH 7.0, 0.1 M NaCl, 30 °C, 30 min; 10 μg protein; lipid in liposomes
T1 construct: gene At1g29660; 26-residue predicted signal peptide removed; pET15b His tag; E. coli BL21(DE3)pLysS; Ni-NTA purified
T1 sequence (Q9C7N5 27-364): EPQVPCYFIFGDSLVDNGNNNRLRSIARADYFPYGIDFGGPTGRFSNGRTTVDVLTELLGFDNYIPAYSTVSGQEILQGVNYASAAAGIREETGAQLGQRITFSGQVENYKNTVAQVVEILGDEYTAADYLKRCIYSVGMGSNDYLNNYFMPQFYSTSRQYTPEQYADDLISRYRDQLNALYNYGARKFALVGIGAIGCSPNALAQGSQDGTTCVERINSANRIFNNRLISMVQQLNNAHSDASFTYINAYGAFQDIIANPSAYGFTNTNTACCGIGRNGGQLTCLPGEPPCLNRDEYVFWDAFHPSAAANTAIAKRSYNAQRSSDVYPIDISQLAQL

[2] = molecular target: T2, PIG-P-like protein (Arabidopsis thaliana, UniProt A0A1P8B1E2); details: pH 7.0, 0.1 M NaCl, 30 °C, 30 min; 1 μg protein; lipid in liposomes
T2 construct: gene TRM18; coding region, no signal peptide; pET15b His tag; E. coli BL21(DE3)pLysS; Ni-NTA purified; 50 kDa
T2 sequence (A0A1P8B1E2 1-464): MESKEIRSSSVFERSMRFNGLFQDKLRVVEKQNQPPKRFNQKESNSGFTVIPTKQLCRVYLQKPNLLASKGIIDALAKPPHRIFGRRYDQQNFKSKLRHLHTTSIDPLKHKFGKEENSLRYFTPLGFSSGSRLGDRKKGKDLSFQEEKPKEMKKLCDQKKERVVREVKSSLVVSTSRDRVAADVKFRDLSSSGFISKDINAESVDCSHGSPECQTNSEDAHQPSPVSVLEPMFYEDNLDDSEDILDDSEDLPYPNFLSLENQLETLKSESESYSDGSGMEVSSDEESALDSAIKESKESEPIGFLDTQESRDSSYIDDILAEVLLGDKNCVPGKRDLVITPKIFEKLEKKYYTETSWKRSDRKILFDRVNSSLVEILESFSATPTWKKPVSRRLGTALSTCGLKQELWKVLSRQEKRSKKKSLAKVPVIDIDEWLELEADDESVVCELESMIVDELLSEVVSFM

[3] = molecular target: T3, PLAFP (phloem lipid-associated family protein) (Arabidopsis thaliana, UniProt O65660); details: pH 7.0, 0.1 M NaCl, 30 °C, 30 min; 1 μg protein; PtdOH mixed into PtdCho liposomes; figure modified from Benning et al. 2012 (same laboratory)
T3 construct: gene PLAT1; 23-residue predicted signal peptide removed; pET15b His tag; E. coli OrigamiB(DE3)pLysS; HisLink purified
T3 sequence (O65660 24-181): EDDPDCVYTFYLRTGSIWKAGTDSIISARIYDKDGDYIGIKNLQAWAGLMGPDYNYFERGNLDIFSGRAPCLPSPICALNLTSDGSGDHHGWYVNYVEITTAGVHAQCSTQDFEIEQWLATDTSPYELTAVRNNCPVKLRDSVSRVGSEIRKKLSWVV

Q: For CCCCCCCC/C=C\CCCCCCCC(=O)OC[C@H](COP(=O)(O)O)OC(=O)CCCCCCC/C=C\CCCCCCCC [PtdOH], which “liposome co-sedimentation with anti-His Western blot; protein-lipid overlay” value (“liposome co-sedimentation” below) [1] is on record?
A: The value was “the GDSL-lipase does associate with PtdOH-containing liposomes (Figure 1G)”.

Q: And the “liposome co-sedimentation” value [2]?
A: Its value is “PIG-P binds to liposomes containing PtdOH or PtdSer”.

Q: And the “liposome co-sedimentation” value [3]?
A: Its value is “when PtdOH was included in the liposome, PLAFP bound”.

From PMC4849433, “Phloem Proteomics Reveals New Lipid-Binding Proteins with a Putative Role in Lipid-Mediated Signaling” (Frontiers in Plant Science, 2016)
